The subject of this test is MV-4-11 cells. The test is described as follows: Gene expression microarray analysis (Affymetrix PrimeView) and GSEA. Format: cell-based, human. Further details: RFU PODN (11730768_x_at) / Fold change /veh PODN (11730768_x_at) / RFU LINC00158 (11744669_a_at) / Fold change /veh LINC00158 (11744669_a_at) / RFU DUSP10 (11751237_a_at) / Fold change /veh DUSP10 (11751237_a_at) / RFU ID3 (11757404_x_at) / Fold change /veh ID3 (11757404_x_at) / RFU PLEKHG5 (11737974_s_at) / Fold change /veh PLEKHG5 (11737974_s_at) / RFU LRRC4B (11730491_at) / Fold change /veh LRRC4B (11730491_at) / RFU GIMAP4 (11747438_a_at) / Fold change /veh GIMAP4 (11747438_a_at) / RFU KRT8 (11758183_x_at) / Fold change /veh KRT8 (11758183_x_at) / RFU CNN1 (11734310_a_at) / Fold change /veh CNN1 (11734310_a_at) / RFU VPS37D (11726825_at) / Fold change /veh VPS37D (11726825_at) / RFU C10orf10 (11716522_x_at) / Fold change /veh C10orf10 (11716522_x_at) / RFU KIR2DL2 /// KIR2DL4 /// KIR2DL5A /// KIR2DL5B /// KIR2DS1 /// KIR2DS2 /// KIR2DS3 /// KIR2DS4 /// KIR3DL3 /// KIR3DL3 /// KIR3DS1 (11738374_at) / Fold change /veh KIR2DL2 /// KIR2DL4 /// KIR2DL5A /// KIR2DL5B /// KIR2DS1 /// KIR2DS2 /// KIR2DS3 /// KIR2DS4 /// KIR3DL3 /// KIR3DL3 /// KIR3DS1 (11738374_at) / RFU C1QL1 (11718748_at) / Fold change /veh C1QL1 (11718748_at) / RFU TMPRSS4 (11747572_a_at) / Fold change /veh TMPRSS4 (11747572_a_at) / RFU HAMP (11756126_x_at) / Fold change /veh HAMP (11756126_x_at) / RFU RNFT2 (11725882_a_at) / Fold change /veh RNFT2 (11725882_a_at) / RFU NR4A2 (11747474_a_at) / Fold change /veh NR4A2 (11747474_a_at) / RFU ABCC12 (11746883_a_at) / Fold change /veh ABCC12 (11746883_a_at) / RFU TMEM136 (11760407_x_at) / Fold change /veh TMEM136 (11760407_x_at) / RFU CLDN22 /// WWC2 (11732394_at) / Fold change /veh CLDN22 /// WWC2 (11732394_at) / RFU HLA-DPB1 (11760878_x_at) / Fold change /veh HLA-DPB1 (11760878_x_at) / RFU SPINT1 (11716480_a_at) / Fold change /veh SPINT1 (11716480_a_at) / RFU GAP43 (11754022_s_at) / Fold change /veh GAP43 (11754022_s_at) / RFU A4GNT (11735810_at) / Fold change /veh A4GNT (11735810_at) / RFU PRB3 (11715151_x_at) / Fold change /veh PRB3 (11715151_x_at) / RFU TUBB4B (11761932_at) / Fold change /veh TUBB4B (11761932_at) / RFU CAPN14 (11732068_a_at) / Fold change /veh CAPN14 (11732068_a_at) / RFU TMCC2 (11721928_a_at) / Fold change /veh TMCC2 (11721928_a_at) / RFU IRGQ (11745062_a_at) / Fold change /veh IRGQ (11745062_a_at) / RFU FAM174B (11720279_a_at) / Fold change /veh FAM174B (11720279_a_at) / RFU TMPRSS4 (11748680_a_at) / Fold change /veh TMPRSS4 (11748680_a_at) / RFU FAM212B (11763350_a_at) / Fold change /veh FAM212B (11763350_a_at) / RFU PLEKHG5 (11743358_a_at) / Fold change /veh PLEKHG5 (11743358_a_at) / RFU ZSCAN30 (11745921_a_at) / Fold change /veh ZSCAN30 (11745921_a_at) / RFU CMKLR1 (11741424_a_at) / Fold change /veh CMKLR1 (11741424_a_at) / RFU LOC101060620 /// MAPK8IP1 (11723275_at) / Fold change /veh LOC101060620 /// MAPK8IP1 (11723275_at) / RFU SPTSSB (11747773_x_at) / Fold change /veh SPTSSB (11747773_x_at) / RFU PRSS12 (11739890_at) / Fold change /veh PRSS12 (11739890_at) / RFU BIN1 (11741810_x_at) / Fold change /veh BIN1 (11741810_x_at) / RFU WNT11 (11732464_a_at) / Fold change /veh WNT11 (11732464_a_at) / RFU C10orf10 (11716521_a_at) / Fold change /veh C10orf10 (11716521_a_at) / RFU C5orf56 (11738089_at) / Fold change /veh C5orf56 (11738089_at) / RFU CYB561 (11721691_x_at) / Fold change /veh CYB561 (11721691_x_at) / RFU ANKRD19P (11752326_a_at) / Fold change /veh ANKRD19P (11752326_a_at) / RFU OR2T12 /// OR2T33 /// OR2T8 (11738714_s_at) / Fold change /veh OR2T12 /// OR2T33 /// OR2T8 (11738714_s_at) / RFU VCAN (11748164_a_at) / Fold change /veh VCAN (11748164_a_at) / RFU JSRP1 (11732532_at) / Fold change /veh JSRP1 (11732532_at) / RFU KRTAP10-11 (11738290_x_at) / Fold change /veh KRTAP10-11 (11738290_x_at) / RFU MYO3A (11730013_a_at) / Fold change /veh MYO3A (11730013_a_at) / RFU EBF3 (11725865_a_at) / Fold change /veh EBF3 (11725865_a_at) / RFU CAMK2N1 (11719241_x_at) / Fold change /veh CAMK2N1 (11719241_x_at) / RFU C5orf56 (11738088_a_at) / Fold change /veh C5orf56 (11738088_a_at) / RFU OLFML3 (11715873_a_at) / Fold change /veh OLFML3 (11715873_a_at) / RFU LOC100653217 /// NTM (11731650_a_at) / Fold change /veh LOC100653217 /// NTM (11731650_a_at) / RFU MAPK11 (11762145_a_at) / Fold change /veh MAPK11 (11762145_a_at) / RFU FIZ1 (11724087_x_at) / Fold change /veh FIZ1 (11724087_x_at) / RFU OASL (11726364_x_at) / Fold change /veh OASL (11726364_x_at) / RFU SOX15 (11748057_x_at) / Fold change /veh SOX15 (11748057_x_at) / RFU CD79A (11719716_a_at) / Fold change /veh CD79A (11719716_a_at) / RFU HIST1H1D (11736915_at) / Fold change /veh HIST1H1D (11736915_at) / RFU CASKIN2 (11723855_a_at) / Fold change /veh CASKIN2 (11723855_a_at) / RFU LOC730098 (11760151_x_at) / Fold change /veh LOC730098 (11760151_x_at) / RFU OR4N2 (11742367_at) / Fold change /veh OR4N2 (11742367_at) / RFU PRRT2 (11749266_a_at) / Fold change /veh PRRT2 (11749266_a_at) / RFU SNX32 (11753110_a_at) / Fold change /veh SNX32 (11753110_a_at) / RFU CDHR5 (11726645_a_at) / Fold change /veh CDHR5 (11726645_a_at) / RFU RCAN1 (11760418_a_at) / Fold change /veh RCAN1 (11760418_a_at) / RFU FAM167A (11723789_a_at) / Fold change /veh FAM167A (11723789_a_at) / RFU FAM26E (11764081_at) / Fold change /veh FAM26E (11764081_at) / RFU ISYNA1 (11749810_s_at) / Fold change /veh ISYNA1 (11749810_s_at) / RFU ACY1 (11761880_at) / Fold change /veh ACY1 (11761880_at) / RFU 11764098_at / Fold change /veh 11764098_at / RFU SAMD14 (11745864_x_at) / Fold change /veh SAMD14 (11745864_x_at) / RFU NPB (11741838_a_at) / Fold change /veh NPB (11741838_a_at) / RFU TMPRSS6 (11731388_a_at) / Fold change /veh TMPRSS6 (11731388_a_at) / RFU KRTAP10-2 (11738614_at) / Fold change /veh KRTAP10-2 (11738614_at) / RFU ARHGAP8 /// PRR5-ARHGAP8 (11727945_x_at) / Fold change /veh ARHGAP8 /// PRR5-ARHGAP8 (11727945_x_at) / RFU KRTAP5-7 /// NADSYN1 (11734609_at) / Fold change /veh KRTAP5-7 /// NADSYN1 (11734609_at) / RFU RASL12 (11751679_a_at) / Fold change /veh RASL12 (11751679_a_at) / RFU CDKN2B (11736163_a_at) / Fold change /veh CDKN2B (11736163_a_at) / RFU PRF1 (11729649_at) / Fold change /veh PRF1 (11729649_at) / RFU, ZNF638 /// ZNF638-IT1 / Fold change vs veh, ZNF638 /// ZNF638-IT1 / RFU, PANK3 / Fold change vs veh, PANK3 / RFU, SH3YL1 / Fold change vs veh, SH3YL1 / RFU, ZEB2 / Fold change vs veh, ZEB2 / RFU, NRIP1 / Fold change vs veh, NRIP1 / RFU, PTTG1IP / Fold change vs veh, PTTG1IP / RFU, CAPN2 / Fold change vs veh, CAPN2 / RFU, MED14 / Fold change vs veh, MED14 / RFU, SNORA58 / Fold change vs veh, SNORA58 / RFU, C1orf63 / Fold change vs veh, C1orf63 / RFU, LRRFIP1 / Fold change vs veh, LRRFIP1 / RFU, NDUFAF7 / Fold change vs veh, NDUFAF7 / RFU, SLC12A2 / Fold change vs veh, SLC12A2 / RFU, IBTK / Fold change vs veh, IBTK / RFU, ESF1 / Fold change vs veh, ESF1 / Fold change vs veh, TMEM50B / RFU, TAOK1 / Fold change vs veh, TAOK1 / RFU, ACBD3 / Fold change vs veh, ACBD3 / RFU, TMA16 / Fold change vs veh, TMA16 / RFU, RWDD3 / Fold change vs veh, RWDD3 / RFU, BCAT1 / Fold change vs veh, BCAT1 / RFU, EDEM3 / Fold change vs veh, EDEM3 / RFU, TMEM33 / Fold change vs veh, TMEM33 / RFU, WDR75 / Fold change vs veh, WDR75 / RFU, AHCTF1 / Fold change vs veh, AHCTF1 / RFU, TFRC / Fold change vs veh, TFRC / RFU, ZDHHC17 / Fold change vs veh, ZDHHC17 / RFU, NOM1 / Fold change vs veh, NOM1 / RFU, ARL8B / Fold change vs veh, ARL8B / RFU, ZBTB11 / Fold change vs veh, ZBTB11 / RFU, TAMM41 / Fold change vs veh, TAMM41 / RFU, KIAA1704 /// LOC100996395 / Fold change vs veh, KIAA1704 /// LOC100996395 / RFU, ING1 / Fold change vs veh, ING1 / RFU, TRMT61B / Fold change vs veh, TRMT61B / RFU, FUBP3 / Fold change vs veh, FUBP3 / RFU, TP53 / Fold change vs veh, TP53 / RFU, TNKS2 / Fold change vs veh, TNKS2 / RFU, ZFP14 / Fold change vs veh, ZFP14 / RFU, ACTR2 / Fold change vs veh, ACTR2 / RFU, PPP3R1 / Fold change vs veh, PPP3R1 / RFU, PIK3R1 / Fold change vs veh, PIK3R1 / RFU, HNRNPA1 / Fold change vs veh, HNRNPA1 / RFU, RNF170 / Fold change vs veh, RNF170 / RFU, ZNF28 / Fold change vs veh, ZNF28 / RFU, RNGTT / Fold change vs veh, RNGTT / RFU, OGT / Fold change vs veh, OGT / RFU, BRD1 / Fold change vs veh, BRD1 / RFU, MARS / Fold change vs veh, MARS / RFU, ZNF655 / Fold change vs veh, ZNF655 / RFU, FAHD1 / Fold change vs veh, FAHD1 / RFU, BDP1 / Fold change vs veh, BDP1 / RFU, LRRCC1 / Fold change vs veh, LRRCC1 / RFU, ARID1A / Fold change vs veh, ARID1A / RFU, ZNF146 / Fold change vs veh, ZNF146 / RFU, ZNF330 / Fold change vs veh, ZNF330 / RFU, GPN3 / Fold change vs veh, GPN3 / RFU, C9orf123 / Fold change vs veh, C9orf123 / RFU, N4BP2L2 / Fold change vs veh, N4BP2L2 / RFU, ARFIP1 / Fold change vs veh, ARFIP1 / RFU, FAM179B / Fold change vs veh, FAM179B / RFU, BCL10 / Fold change vs veh, BCL10 / RFU, UHRF1BP1L / Fold change vs veh, UHRF1BP1L / RFU, BET1 / Fold change vs veh, BET1 / RFU, CNOT2 / Fold change vs veh, CNOT2 / RFU, ZNF268 / Fold change vs veh, ZNF268 / Fold change vs veh, ZNF507 / RFU, DGCR2 / Fold change vs veh, DGCR2 / RFU, WDSUB1 / Fold change vs veh, WDSUB1 / Fold change vs veh, HSP90B1 /// MIR3652 / RFU, ADSS / Fold change vs veh, ADSS / RFU, GK / Fold change vs veh, GK / RFU, ZNF148 / Fold change vs veh, ZNF148 / RFU, TAF9 / Fold change vs veh, TAF9 / RFU, SLC1A5 / Fold change vs veh, SLC1A5 / RFU, SLMO2 / Fold change vs veh, SLMO2 / RFU, ABCC4 / Fold change vs veh, ABCC4 / RFU, LOC101060439 /// RAP1B / Fold change vs veh, LOC101060439 /// RAP1B / RFU, RFX7 / Fold change vs veh, RFX7 / RFU, GTPBP10 / Fold change vs veh, GTPBP10 / RFU, CNEP1R1 / Fold change vs veh, CNEP1R1 / RFU, BIVM-ERCC5 /// ERCC5 / Fold change vs veh, BIVM-ERCC5 /// ERCC5 / RFU, ILF3 / Fold change vs veh, ILF3 / RFU 11762660_at / Fold change /veh 11762660_at / RFU VCAN (11757783_s_at) / Fold change /veh VCAN (11757783_s_at) / RFU DDX43 (11728927_at) / Fold change /veh DDX43 (11728927_at) / RFU KRT8 (11758188_x_at) / Fold change /veh KRT8 (11758188_x_at) / RFU NKD1 (11759106_at) / Fold change /veh NKD1 (11759106_at) / RFU SRD5A1 (11742802_a_at) / Fold change /veh SRD5A1 (11742802_a_at) / RFU TPSAB1 /// TPSB2 (11721975_s_at) / Fold change /veh TPSAB1 /// TPSB2 (11721975_s_at) / RFU GSTM3 (11746129_a_at) / Fold change /veh GSTM3 (11746129_a_at) / RFU IL23R (11737362_x_at) / Fold change /veh IL23R (11737362_x_at) / RFU TMEM51 (11727254_a_at) / Fold change /veh TMEM51 (11727254_a_at) / RFU PIWIL2 (11732686_x_at) / Fold change /veh PIWIL2 (11732686_x_at) / RFU ORM1 (11744905_x_at) / Fold change /veh ORM1 (11744905_x_at) / RFU CCDC152 (11743942_at) / Fold change /veh CCDC152 (11743942_at) / RFU ECM1 (11717891_a_at) / Fold change /veh ECM1 (11717891_a_at) / RFU IL23R (11748794_a_at) / Fold change /veh IL23R (11748794_a_at) / RFU TNFAIP8L3 (11732012_x_at) / Fold change /veh TNFAIP8L3 (11732012_x_at) / RFU MBOAT4 (11741988_at) / Fold change /veh MBOAT4 (11741988_at) / RFU 11764193_at / Fold change /veh 11764193_at / RFU TMEM53 (11763286_at) / Fold change /veh TMEM53 (11763286_at) / RFU MAGEB2 (11727129_at) / Fold change /veh MAGEB2 (11727129_at) / RFU TMEM200A (11744735_a_at) / Fold change /veh TMEM200A (11744735_a_at) / RFU CCDC152 (11751479_a_at) / Fold change /veh CCDC152 (11751479_a_at) / RFU FAM211A (11726209_a_at) / Fold change /veh FAM211A (11726209_a_at) / RFU RGS16 (11746705_a_at) / Fold change /veh RGS16 (11746705_a_at) / RFU VCAN (11755009_s_at) / Fold change /veh VCAN (11755009_s_at) / RFU RHOB (11743442_s_at) / Fold change /veh RHOB (11743442_s_at) / RFU RGS16 (11720943_a_at) / Fold change /veh RGS16 (11720943_a_at) / RFU RGS16 (11720944_at) / Fold change /veh RGS16 (11720944_at) / RFU, VPS4B / Fold change vs veh, VPS4B / RFU, CREB1 / Fold change vs veh, CREB1 / RFU, DNAJC13 / Fold change vs veh, DNAJC13 / RFU, GNAQ / Fold change vs veh, GNAQ / RFU, CDK5R1 / Fold change vs veh, CDK5R1 / RFU, ZRANB3 / Fold change vs veh, ZRANB3 / RFU, CUL4A / Fold change vs veh, CUL4A / RFU, CCNY / Fold change vs veh, CCNY / RFU, UFL1 / Fold change vs veh, UFL1 / RFU, COG3 / Fold change vs veh, COG3 / RFU, DIAPH2 / Fold change vs veh, DIAPH2 / RFU, SKA2 / Fold change vs veh, SKA2 / RFU, AFF3 / Fold change vs veh, AFF3 / RFU, LMF1 / Fold change vs veh, LMF1 / RFU, IPO11 / Fold change vs veh, IPO11 / RFU, DFFB / Fold change vs veh, DFFB / RFU, FOXP1 / Fold change vs veh, FOXP1 / RFU, CARD8 / Fold change vs veh, CARD8 / RFU, STRN3 / Fold change vs veh, STRN3 / RFU, ADK / Fold change vs veh, ADK / RFU, RASSF2 / Fold change vs veh, RASSF2 / RFU, WIPF1 / Fold change vs veh, WIPF1 / RFU, LARP1B / Fold change vs veh, LARP1B / RFU, RASA1 / Fold change vs veh, RASA1 / RFU, RB1 / Fold change vs veh, RB1 / RFU, PPFIA1 / Fold change vs veh, PPFIA1 / RFU, MAT2A / Fold change vs veh, MAT2A / RFU, CCT5 / Fold change vs veh, CCT5 / RFU, WDR92 / Fold change vs veh, WDR92 / RFU, CUX1 / Fold change vs veh, CUX1 / RFU, TTC7A / Fold change vs veh, TTC7A / RFU, TMEM135 / Fold change vs veh, TMEM135 / RFU, DEPTOR / Fold change vs veh, DEPTOR / RFU, CPM / Fold change vs veh, CPM / RFU, DNAJB6 / Fold change vs veh, DNAJB6 / RFU, CACNA2D3 / Fold change vs veh, CACNA2D3 / RFU, DTX4 / Fold change vs veh, DTX4 / RFU, TFCP2 / Fold change vs veh, TFCP2 / RFU, GMCL1 /// GMCL1P1 / Fold change vs veh, GMCL1 /// GMCL1P1 / RFU, AEBP2 / Fold change vs veh, AEBP2 / RFU, SNHG1 /// SNORD22 /// SNORD25 /// SNORD26 /// SNORD27 /// SNORD28 /// SNORD29 /// SNORD31 / Fold change vs veh, SNHG1 /// SNORD22 /// SNORD25 /// SNORD26 /// SNORD27 /// SNORD28 /// SNORD29 /// SNORD31 / Fold change (Aza/veh), C12orf56 (ProbeSet 11735607_a_at) / Fold change (ACY-1035/veh), C12orf56 (ProbeSet 11735607_a_at) / Fold change (Aza/veh), FGFR1OP (ProbeSet 11751329_s_at) / Fold change (ACY-1035/veh), FGFR1OP (ProbeSet 11751329_s_at) / Fold change (Aza/veh), VPS36 (ProbeSet 11739960_a_at) / Fold change (ACY-1035/veh), VPS36 (ProbeSet 11739960_a_at) / RFU SYPL1 (11715823_x_at) / Fold change /veh SYPL1 (11715823_x_at) / RFU IGFBP7 (11715501_s_at) / Fold change /veh IGFBP7 (11715501_s_at) / RFU REEP3 (11722064_at) / Fold change /veh REEP3 (11722064_at) / RFU IGLL1 (11728026_x_at) / Fold change /veh IGLL1 (11728026_x_at): dose or concentration left out as unconfirmed. To be noted: MV-4-11 cells, 48 hours.

As to `Nc1ncn([C@@H]2O[C@H](CO)[C@@H](O)[C@H]2O)c(=O)n1` [azacitidine], the “RFU TMEM53 (11763286_at)” value is listed as 26.80 RFU.
